These results are taken from US4925861A, “Carboxystyrene derivatives and drugs containing them as effective ingredients” (Mitsubishi Kasei Corporation, priority 1987, dated 1990).

For orientation: inhibition means the change of the read-out against control, counted positive when it falls. Usually LD50 stands for the dose expected to kill half of the subjects tested. Higher therefore signals a less toxic substance.

The first series concerns SRS extracted from guinea pig lung. The experiment in a line: in vitro SRS antagonistic activity (contraction of isolated guinea pig ileum). Type of series: cell-based. Conditions: Cavia porcellus, concentration reducing the control contraction (one unit of SRS) of guinea pig ileum by 50%, Tyrode's solution, 37° C., mepyramine and atropine present, read-out: Anti-SRS Activity (Minimal Effective Concentration). As to the method:
The terminal ileum was taken from a male Hartley guinea pig (200 to 450 g) and the lumen was washed. The ileum was set in 5 ml of a tissue bath containing Tyrode's solution: NaCl 136 mM, KCl 2.7 mM, NaHCO3 11.9 mM, MgCl2 1.05 mM, CaCl2 1.8 mM, NaH2 PO4 0.4 mM, and glucose 5.6 mM. The temperature in the bath was kept at 37° C. and the bath was aerated by 95% oxygen/5% carbon dioxide. The buffer solution also contained 10^-7 g/ml mepyramine and 5×10^-8 g/ml atropine in order to prevent the contraction caused by histamine and acetylcholine. Isometric measurement was done by an […] transducer (TD-112S, NIPPON KODEN, Japan) and change of tension in gram was recorded in a recticorder (RTG-4124, NIPPON KODEN, Japan). A tension of 0.5 g was passively loaded on the ileum. Thus, the contraction response of the ileum to SRS extracted from guinea pig lung was observed. The tonic contraction corresponding to one unit of SRS which corresponded to 5 ng of histamine was used as control. Varying concentrations of each compound to be tested were added to the tissue bath. The concentration of each compound to be tested which reduced the contraction of the control by 50%, IC50, was shown as a minimal effective concentration in M in Table 3.
In the case of `O=C(O)CCCNC(=O)c1cccc(C=Cc2nc3ccccc3s2)c1` [Compound 6, 4-(N-(3-(2-(2-benzthiazolyl))ethenyl)benzoyl)aminobutyric acid], the IC50 was determined as 10000 nM. Same read-out and setting: as for `O=C(O)c1cccc(C=Cc2nc3ccccc3s2)c1` [Compound 1, 3-(2-(2-benzthiazolyl))ethenylbenzoic acid], the figure is 200 nM; as for `CC(C)c1csc(C=Cc2cccc(C(=O)O)c2)n1` [Compound 5, 3-(2-(4-isopropyl-2-thiazolyl))ethenylbenzoic acid], 50 nM; as for `CCCc1csc(C=Cc2cccc(C(=O)O)c2)n1` [Compound 2], 20 nM. The same measure, in the same setting: under `CC(C)(CNC(=O)c1cccc(C=Cc2nc3ccccc3s2)c1)C(=O)O` [Compound 7] stands 50 nM. On to `O=C(O)c1cccc(C=Cc2ccc3ccccc3n2)c1` [Compound 3], for which the IC50 was 50 nM.

A further series deals with Phospholipase A2 from Porcine Pancreas (Sus scrofa, UniProt P00592). The series is described as follows: in vitro phospholipase inhibiting activity (DPybPC fluorescence). Conditions: pH 8, read-out: Phospholipase A2 Inhibition (%).
Phospholipase A2 from Porcine Pancreas, sequence (P00592 23-146): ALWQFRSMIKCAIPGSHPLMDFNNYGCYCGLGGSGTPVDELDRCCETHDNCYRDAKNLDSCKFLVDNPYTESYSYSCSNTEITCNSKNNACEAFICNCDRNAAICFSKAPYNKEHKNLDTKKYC
Description: In 2.4 ml of 5 mM tris(hydroxymethyl)aminomethane hydrochloride buffer (pH 8.0) containing 0.1M sodium chloride and 5 mM calcium chloride, 0.3 ml of a phospholipase A2 solution from Naja mocambique or Porcine pancreas (Sigma) in a final concentration of 0.014 units per 0.01 μg per ml was preincubated with 0.03 ml of an inhibitor at 25° C. for 15 minutes. A synthetic substrate DPybPC, 1,2-bis(4-(l-pyreno)butyryl)-syn-glycero-3-phosphorylcholine (0.3 ml, final concentration: 2 μM) was added and incubation was continued for 30 minutes. The reaction was terminated by addition of hydrochloric acid (1N, 0.5 ml), the fluorescence intensity was measured (Ex. 332 nm; Em. 382 nm) to calculate the activity of the phospholipase A2. The enzymes, synthetic substrate and inhibitor used were dissolved or diluted in the buffer.
`CC(C)c1csc(C=Cc2cccc(C(=O)NCC3(C(=O)O)CCCCC3)c2)n1` [Compound 22, 3-(N-(3-(2-(4-isopropyl-2-thiazolyl))ethenyl)benzoyl)amino-2-spiro-l'-cyclohexanepropionic acid]: the inhibition at 10 µM was 74%.

Test system in a further series: not listed separately
The experiment in a line: Acute toxicity, oral, mice. The settings on record: mouse, in vivo, suspension in 1% tragacanth, ddy male mice, observed for 7 days. An excerpt: A suspension of the compound according to the present invention in 1% tragacanth solution was orally administered to a group of 4 to 5 ddy male mice of 6 week old.
Molecule `CCCc1csc(C=Cc2cccc(C(=O)NCC(CC)(CC)C(=O)O)c2)n1` [Compound 19, 3-(N-(3-(2-(4-propyl-2-thiazolyl))ethenyl)benzoyl)amino-2,2-diethylpropionic acid] had an LD50 at 168 h of over 1000 mg/kg.

On to `CC(C)(CNC(=O)c1cccc(C=Cc2nc3ccccc3s2)c1)C(=O)O` [Compound 7], for which the LD50 at 168 h is over 700 mg/kg.
